Where “and” joins values, the source holds several entries; their conditions need not be identical. Identical values can stand only once. Counter-ions that a name gives are not always drawn.
target: steroid site on the GABAA receptor-chloride channel complex; assay: [35S]TBPS binding assay; parameters: species or system Male Sprague-Dawley rats; settings: inhibition of [35S]TBPS (2 nM) binding, rat cerebral cortex P2 membranes, 5 µM GABA, 90 minute incubation at 22°C
Method: TBPS binding assays were conducted according to the following procedures, which are described in Gee, K.W.; Lawrence, L.J.; and Yamamura, H. I., "Modulation of the Chloride Ionophore by Benzodiazepine Receptor Ligands Influence of Gamma-Aminobutyric Acid and Ligand Efficacy," Molecular Pharmacology, 30:218, 1986. Male Sprague-Dawley rats (200-250g) were anesthetized with carbon dioxide and decapitated. The rats' brains were removed and the cerebral cortices were dissected and homogenized in 10 volumes of 0.32 M sucrose. Tissue was centrifuged at 1000 x g for 10 minutes and the resultant supernatant was centrifuged at 9,000 g for 20 minutes. The resultant pellet was resuspended in 10 volumes of 200 mM NaCl/50 mM Na-K phosphate pH 7.4 buffer (binding buffer) and then centrifuged at 9,000 x g for 10 minutes. This washing procedure was repeated twice and the final P2 pellet was resuspended in the binding buffer. For the binding assay, [^35S] TBPS (2 nM) was co-incubated in binding buffer with P2 membranes and 5 µM GABA and either 1) no additions to measure total binding; 2) 2 µM unlabeled TPBS to measure nonspecific binding; 3) the neurosteroid ranging in concentration from 1 Nm to 10µM. Following a 90 minute incubation at 22°C, the suspension was filtered and the bound radioactivity was determined by liquid scintillation counting. […] A lower IC50 indicates higher affinity for the steroid site on the GABAA receptor-chloride channel complex. Table 1 gives the IC50 values of representative steroids used in the present invention.

Row | Molecule | IC50
1 | 3α-Hydroxy-3β-trifluoromethyl-5β-19-nor-pregn-17(20)-ene | 482 nM
2 | 20,20-ethylenedioxy-3α-hydroxy-5α-pregnan-20-one | 176 nM
3 | CC(=O)[C@H]1CC[C@H]2[C@@H]3CC[C@@H]4C[C@@](O)(C#CCC(C)OC(=O)CCC(=O)O)CC[C@]4(C)[C@H]3CC[C@]12C (mixture of isomers) [3α-Hydroxy-3β-[4'(R/S)-hydroxypentynyl]-5β-pregnan-20-one 4'(R/S)-hemisuccinate sodium salt] | 153 nM
4 | CC(C)(O)[C@H]1CC[C@H]2[C@@H]3CC[C@H]4C[C@H](O)CC[C@]4(C)[C@H]3CC[C@]12C [3α,20-dihydroxy-20-methyl-5α-pregnane] | 151 nM
5 | CCC[C@H](O)[C@H]1CC[C@H]2[C@@H]3CC[C@H]4C[C@H](O)CC[C@]4(C)[C@H]3CC[C@]12C [3α,20a-Dihydroxy-21-ethyl-5α-pregnane] | 27 nM
6 | CC[C@H](O)[C@H]1CC[C@H]2[C@@H]3CC[C@H]4C[C@H](O)CC[C@]4(C)[C@H]3CC[C@]12C [3α,20a-Dihydroxy-21-methyl-5α-pregnane] | 35 nM
7 | C[C@H](O)[C@H]1CC[C@H]2[C@@H]3CC[C@H]4C[C@](C)(O)CC[C@]4(C)[C@H]3CC[C@]12C [3α,20a-dihydroxy-30-methyl-5α-pregnane] | 166 nM
8 | C[C@@H](O)[C@H]1CC[C@H]2[C@@H]3CC[C@@H]4C[C@H](O)CC[C@]4(C)[C@H]3CC[C@]12C [3α,20b-dihydroxy-5β-pregnane] | 206 nM
9 | C#C[C@@]1(O)CC[C@@]2(C)[C@@H](CC[C@@H]3[C@@H]2CC[C@]2(C)[C@@H](C(=O)CO)CC[C@@H]32)C1 [3α,21-Dihydroxy-3β-ethynyl-5α-pregnan-20-one] | 216 nM
10 | CC(=O)OCC(=O)[C@H]1CC[C@H]2[C@@H]3CC[C@@H]4C[C@@](O)(C(F)(F)F)CC[C@]4(C)[C@H]3CC[C@]12C [3α,21-Dihydroxy-3β-trifluoromethyl-5β-pregnan-20-one, 21-acetate] | 370 nM
11 | C[C@@]1(O)CC[C@@]2(C)[C@@H](CC[C@@H]3[C@@H]2CC[C@]2(C)[C@@H](C(=O)COC(=O)CCC(=O)O)CC[C@@H]32)C1 [3α,21-dihydroxy-3β-methyl-5α-pregnan-20-one 21-Hemisuccinate] | 241 nM
12 | CC(=O)OCC(=O)[C@H]1CC[C@H]2[C@@H]3CC[C@H]4C[C@H](O)CC[C@]4(C)[C@H]3CC[C@]12C [3α,21-dihydroxy-5α-pregnan-20-one 21-acetate] | 75 nM and 119 nM
13 | C[C@]12CC[C@@H](O)C[C@@H]1CC[C@@H]1[C@@H]2CC[C@]2(C)[C@@H](C(=O)COC(=O)CCC(=O)O)CC[C@@H]12 [3α,21-dihydroxy-5α-pregnan-20-one 21-hemisuccinate] | 117 nM
14 | C[C@]12CC[C@@H](O)C[C@H]1CC[C@@H]1[C@@H]2CC[C@]2(C)[C@@H](C(=O)COC(=O)CCC(=O)O)CC[C@@H]12 [3α,21-dihydroxy-5β-pregnan-20-one 21-hemisuccinate] | 224 nM
15 | C[C@]12CC[C@@H](O)C[C@H]1CC[C@@H]1[C@@H]2CC[C@]2(C)[C@@H](C(=O)CO)CC[C@@H]12 [3α,21-dihydroxy-50-pregnan-20-one] | 180 nM
16 | CC(C)(O)[C@H]1CC[C@H]2[C@@H]3CC[C@H]4C[C@](C)(O)CC[C@]4(C)[C@H]3CC[C@]12C [3α, 20-dihydroxy-3β, 20-dimethyl-5α-pregnane] | 264 nM
17 | C[C@H](O)[C@H]1CC[C@H]2[C@@H]3CC[C@@H]4C[C@H](O)CC[C@]4(C)[C@H]3CC[C@]12C [3α, 20a-dihydroxy-5β-pregnane] | 292 nM
18 | C#C[C@@]1(O)CC[C@@]2(C)[C@H](CC[C@@H]3[C@@H]2CC[C@]2(C)[C@@H](C(=O)COC(C)=O)CC[C@@H]32)C1 [3α, 21-Dihydroxy-3β-ethynyl-5β-pregnan-20-one, 21-acetate] | 251 nM
19 | C[C@]12CC[C@H]3[C@@H](CC[C@@H]4C[C@@](O)(C(F)(F)F)CC[C@@H]43)[C@@H]1CC[C@@H]2C(=O)CO [3α, 21-Dihydroxy-3β-trifluoromethyl-19-nor-5β-pregnan-20-one] | 265 nM
20 | C[C@@]1(O)CC[C@@]2(C)[C@@H](CC[C@@H]3[C@@H]2CC[C@]2(C)[C@@H](C(=O)COS(C)(=O)=O)CC[C@@H]32)C1 [3α, 21-dihydroxy-3β-methyl-5α-pregnan-20-one 21-mesylate] | 255 nM
21 | C=CC[C@@]1(O)CC[C@@]2(C)[C@H](CC[C@@H]3[C@@H]2CC[C@]2(C)[C@@H](C(C)=O)CC[C@@H]32)C1 [3α-Hydroxy-3β-(2'-propenyl)-5β-pregnan-20-one] | 75 nM

Row | Molecule | IC50
22 | CC(=O)[C@H]1CC[C@H]2[C@@H]3CC[C@H]4C[C@@](O)(C#CC(C)O)CC[C@]4(C)[C@H]3CC[C@]12C (stereo partly drawn) [3α-Hydroxy-3β-[3'(RS)-hydroxybutynyl]-5α-pregnan-20-one] | 140 nM
23 | C/C=C1/CC[C@H]2[C@@H]3CC[C@@H]4C[C@](C)(O)CC[C@@H]4[C@H]3CC[C@]12C [3α-Hydroxy-3β-methyl-5β-19-nor-pregn-17 (Z)-ene] | 154 nM
24 | CC(=O)[C@H]1CC[C@H]2[C@@H]3CC[C@@H]4C[C@](C)(O)CC[C@@H]4[C@H]3CC[C@]12C [3α-Hydroxy-3β-methyl-5β-19-nor-pregnan-20-one] | 26 nM
25 | CC(=O)[C@H]1CC[C@H]2[C@@H]3CC[C@H]4C[C@@](O)(C(F)(F)F)CC[C@@H]4[C@H]3CC[C@]12C [3α-Hydroxy-3β-trifluoromethyl-19-nor-5α-pregnan-20-one] | 251 nM
26 | C[C@@]12CCC[C@H]1[C@@H]1CC[C@H]3C[C@H](O)CC[C@]3(C)[C@H]1CC2 [3α-Hydroxy-5α-androstane] | 252 nM
27 | C/C=C1/CC[C@H]2[C@@H]3CC[C@@H]4C[C@H](O)CC[C@@H]4[C@H]3CC[C@]12C [3α-Hydroxy-5β-19-nor-pregn-17(z) ene] | 209 nM
28 | C#C[C@H]1CC[C@H]2[C@@H]3CC[C@H]4C[C@H](O)CC[C@]4(C)[C@H]3CC[C@]12C [3α-Hydroxy-17b-ethynyl-5α-androstane] | 254 nM
29 | CCC(=O)[C@H]1CC[C@H]2[C@@H]3CC[C@H]4C[C@](C)(O)CC[C@]4(C)[C@H]3CC[C@]12C [3α-hydroxy-3β,21-dimethyl-5α-pregnan-20-one] | 89 nM
30 | CC(=O)[C@H]1CC[C@H]2[C@@H]3CC[C@H]4C[C@@](O)(CCl)CC[C@]4(C)[C@H]3CC[C@]12C [3α-hydroxy-3β-chloromethyl-5α-pregnan-20-one] | 93 nM
31 | CC[C@@]1(O)CC[C@@]2(C)[C@@H](CC[C@@H]3[C@@H]2CC[C@]2(C)[C@@H](C(C)=O)CC[C@@H]32)C1 [3α-hydroxy-3β-ethyl-5α-pregnan-20-one] | 265 nM
32 | CC(=O)[C@H]1CC[C@H]2[C@@H]3CC[C@H]4C[C@@](O)(CF)CC[C@]4(C)[C@H]3CC[C@]12C [3α-hydroxy-3β-fluoromethyl-5α-pregnan-20-one] | 200 nM
33 | COC[C@@]1(O)CC[C@@]2(C)[C@@H](CC[C@@H]3[C@@H]2CC[C@]2(C)[C@@H](C(C)=O)CC[C@@H]32)C1 [3α-hydroxy-3β-methoxymethyl-5α-pregnan-20-one] | 67 nM
34 | C/C=C1/CC[C@H]2[C@@H]3CC[C@H]4C[C@](C)(O)CC[C@@H]4[C@H]3CC[C@]12C [3α-hydroxy-3β-methyl-5α-19-nor-pregn-(Z)-17(20)-ene] | 364 nM
35 | CC(=O)[C@H]1CC[C@H]2[C@@H]3CC[C@H]4C[C@](C)(O)CC[C@@H]4[C@H]3CC[C@]12C [3α-hydroxy-3β-methyl-5α-19-nor-pregnan-20-) one] | 91 nM
36 | C/C=C1/CC[C@H]2[C@@H]3CC[C@@H]4C[C@H](O)CC[C@]4(C)[C@H]3CC[C@]12C [3α-hydroxy-5β-pregnan-cis(Z)-17(20)-ene] | 180 nM
37 | CO/C=C1/CC[C@H]2[C@@H]3CC[C@H]4C[C@H](O)CC[C@@H]4[C@H]3CC[C@]12C [3α-hydroxy-17(Z)-methoxymethylene-19-nor-5α-androstane] | 350 nM
38 | C[C@]12CC[C@@H](O)C[C@@H]1CC[C@@H]1[C@@H]2CC[C@]2(C)[C@@H](C#N)CC[C@@H]12 [3α-hydroxy-17b-cyano-5α-androstane] | 67 nM
39 | C[C@]12CC[C@@H](O)C[C@@H]1CC[C@@H]1[C@@H]2CC[C@]2(C)[C@@H](CO)CC[C@@H]12 [3α-hydroxy-17b-hydroxymethyl-5α-androstane-] | 455 nM
40 | C/C=C1/CC[C@H]2[C@@H]3CC[C@H]4C[C@H](O)CC[C@@H]4[C@H]3CC[C@]12C [3α-hydroxy-19-nor-5α-pregnan-cis-17(20)-ene] | 373 nM
41 | C[C@]12CC[C@@H](O)C[C@@H]1CC[C@@H]1[C@@H]2CC[C@]2(C)[C@@H](C(=O)CSc3ccncc3)CC[C@@H]12 [3α-hydroxy-21-(pyrid-4-ylthio)-5α-pregnan-20-one] | 23 nM

same assay, conditions: inhibition of [35S]TBPS (2 nM) binding, rat cerebral cortex P2 membranes, 5 µM GABA, 90 minute incubation at 22°C; sodium salt

Row | Molecule | IC50
42 | C[C@@]1(O)CC[C@@]2(C)[C@@H](CC[C@@H]3[C@@H]2CC[C@]2(C)[C@@H](C(=O)COC(=O)CCC(=O)O)CC[C@@H]32)C1 [3α,21-dihydroxy-3β-methyl-5α-pregnan-20-one 21-Hemisuccinate, sodium salt] | 211 nM
43 | C[C@]12CC[C@@H](O)C[C@@H]1CC[C@@H]1[C@@H]2CC[C@]2(C)[C@@H](C(=O)COC(=O)CCC(=O)O)CC[C@@H]12 [3α,21-dihydroxy-5α-pregnan-20-one 21-hemisuccinate, sodium salt] | 251 nM

— patent EP0701444B1, “METHODS AND COMPOSITIONS FOR INDUCING SLEEP” (Purdue Pharma Ltd., priority 1993, dated 1994)
